“And” between values parts separate entries of the source, which are not always exact repeats. Equal values may be shown once.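 Protocol summary: plate cells (96-well), add compound at 5 concentrations, incubate 48 h, interpolate endpoints linearly. At the GI50, growth is halved. TGI: total growth inhibition.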
Legend:
Experiment in all cases: inhibition of tumour cell growth, NCI panel, 48 h
NCI-H460 lung = tested on: NCI-H460 lung
NCI-H23 lung = tested on: NCI-H23 lung
MDA-MB-231 breast = tested on: MDA-MB-231 breast
K-562 leukemia = tested on: K-562 leukemia
SK-MEL-28 melanoma = tested on: SK-MEL-28 melanoma
RPMI-8226 leukemia = tested on: RPMI-8226 leukemia
SR leukemia = tested on: SR leukemia
NCI-H226 lung = tested on: NCI-H226 lung
HCT-15 colon = tested on: HCT-15 colon
T-47D breast = tested on: T-47D breast

| Compound | GI50 (NCI-H460 lung) [µM] | TGI (NCI-H460 lung) [µM] | GI50 (NCI-H23 lung) [µM] | TGI (NCI-H23 lung) [µM] | GI50 (MDA-MB-231 breast) [µM] | TGI (MDA-MB-231 breast) [µM] | GI50 (K-562 leukemia) [µM] | TGI (K-562 leukemia) [µM] | GI50 (SK-MEL-28 melanoma) [µM] | TGI (SK-MEL-28 melanoma) [µM] | GI50 (RPMI-8226 leukemia) [µM] | TGI (RPMI-8226 leukemia) [µM] | GI50 (SR leukemia) [µM] | TGI (SR leukemia) [µM] | GI50 (NCI-H226 lung) | TGI (NCI-H226 lung) | GI50 (HCT-15 colon) [µM] | TGI (HCT-15 colon) [µM] | GI50 (T-47D breast) | TGI (T-47D breast) |
| --- | --- | --- | --- | --- | --- | --- | --- | --- | --- | --- | --- | --- | --- | --- | --- | --- | --- | --- | --- | --- |
| C=C1C(=O)O[C@H]2[C@H]1CC/C(Cn1cc(Cn3ccc4cc(Cl)ccc43)nn1)=C\CC[C@@]1(C)O[C@@H]21 | 3.27 | 10.3 | 1.99 | 4.46 | 1.36 | 2.82 | 0.649 | 3.1 | 1.73 | 3.27 | 0.796 | 3.03 | 0.279 | 1.25 | 1.59 µM | 3.03 µM | 1.14 | 2.66 | 1.72 µM | 4.32 µM |
| Nc1nc(F)nc2c1ncn2C1OC(COP(=O)(O)O)C(O)C1O (stereo not given) | – | 616 | – | 243 | – | 772 | – | 1070 | – | 755 | – | 855 | – | > 621 | – | 599 µM | – | 1080 | – | 489 µM |
| C=C1C(=O)O[C@H]2[C@H]1CC/C(COC(=O)N[C@@H](Cc1c[nH]c3ccccc13)C(=O)OC)=C\CC[C@@]1(C)O[C@@H]21 | 3.4 | 12.6 | 1.84 | 4.59 | 1.41 | 3.16 | 0.362 | 5.18 | 1.66 | 3.53 | 0.527 | 2.71 | 0.262 | 1.51 | 15.4 µM | 33.5 µM | 1.45 | 3.91 | 1.84 µM | 4.39 µM |
| CN(C)c1ccc2[nH]c(O)c(C=Nc3ccc(S(N)(=O)=O)cc3)c2c1 | > 25 | > 25 | > 25 | > 25 | > 25 | > 25 | > 25 | > 25 | > 25 | > 25 | > 25 | > 25 | 13.5 | > 25 | > 25 µM | > 25 µM | > 25 | > 25 | > 25 µM | > 25 µM |
| O=C1C=CC(=O)N1c1ccc2c(c1)Cc1cc(NC(=O)C(F)(F)F)ccc1-2 | – | > 100 | – | 32.2 | – | 32.3 | – | 59.6 | – | 34.4 | – | 14.3 | – | 6.44 | – | 17.6 µM | – | 26.9 | – | 53.2 µM |
| Cc1cc(Nc2ncc(Cl)c(Nc3ccccc3S(=O)(=O)C(C)C)n2)c(OC(C)C)cc1C1CCNCC1 | 1.2 | 2.83 | 1.51 | 3.07 | 1.37 | 2.71 | 1.39 | 3.82 | 1.22 | 2.47 | 0.753 | 2.85 | 0.0444 | 1.58 | 1.29 µM and 1.56 µM and 1.7 µM | 3.1 µM and 3.95 µM and 4.25 µM | 1.21 | 2.59 | 1.47 µM and 1.57 µM | 3.27 µM and 3.17 µM |
| CC(=O)NC(Cc1c[nH]c2ccccc12)C(=O)O (stereo not given) | – | > 100 | – | > 100 | – | > 100 | – | > 100 | – | > 100 | – | > 100 | – | > 100 | – | > 100 µM | – | > 100 | – | > 100 µM |
